From publication PMC3124785 (ACS chemical neuroscience, 2011)
Entries after “also recorded” stand apart in the source; their conditions may differ. Read-outs that look alike come from different tables or passages of the source.

Assays:
[1] = test system: primary cortical neurons; conditions: for neuroprotection against OGD, initial screen of BT-SERMs: BT-SERMs 100 nM; for effect of G15 on neuroprotection by antioxidants / sulforaphane: G15 pre-treatment (-45 min); for effect of GPR30 antagonist G15 on neuroprotection: G15 100 nM pre-treatment, test compounds 100 nM; for neuroprotection against OGD by BT-SERM analogs and derivatives: all 100 nM, MTT assay; for neuroprotection against OGD by antioxidants / sulforaphane: concentration series; for concentration giving equivalence to E2 (10 nM) in neuroprotection: MTT cell viability assay, 2 h OGD, 24 h reperfusion; for neuroprotection against OGD at lower concentrations: 1 μM or below
[2] = test system: ERβ; conditions: cited from earlier work
[3] = target: T1, ER (Homo sapiens, UniProt P03372); conditions: Fig. 1; cited from earlier work
T1 sequence (P03372 1-595): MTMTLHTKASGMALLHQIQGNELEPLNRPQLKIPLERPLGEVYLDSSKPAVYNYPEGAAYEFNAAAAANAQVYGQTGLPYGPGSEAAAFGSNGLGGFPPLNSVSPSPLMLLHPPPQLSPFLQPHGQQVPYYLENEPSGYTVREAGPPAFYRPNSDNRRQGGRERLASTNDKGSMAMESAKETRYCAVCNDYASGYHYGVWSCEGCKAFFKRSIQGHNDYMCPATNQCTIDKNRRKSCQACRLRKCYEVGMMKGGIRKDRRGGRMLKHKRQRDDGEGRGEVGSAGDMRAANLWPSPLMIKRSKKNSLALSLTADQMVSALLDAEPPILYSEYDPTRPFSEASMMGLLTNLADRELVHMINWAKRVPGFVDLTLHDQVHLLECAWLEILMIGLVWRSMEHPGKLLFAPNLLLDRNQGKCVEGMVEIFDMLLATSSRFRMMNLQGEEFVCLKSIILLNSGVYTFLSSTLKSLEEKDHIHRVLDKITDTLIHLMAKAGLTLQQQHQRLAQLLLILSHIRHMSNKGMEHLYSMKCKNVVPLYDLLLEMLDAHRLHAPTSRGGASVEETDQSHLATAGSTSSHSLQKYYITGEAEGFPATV

[4] = test system: ERα; conditions: cited from earlier work
[5] = target: iNOS; conditions: read-out: Ki iNOS; cited from earlier work

Compound: Oc1ccc(-c2cc3ccc(O)cc3s2)cc1 [BTC, 2-(4-hydroxyphenyl)-benzo[b]thiophen-6-ol]
- neuroprotection against OGD, initial screen of BT-SERMs ([1]; MTT and LDH): active
- effect of G15 on neuroprotection by antioxidants / sulforaphane [1]: did not inhibit neuroprotection
- ER subtype selectivity ([2]; ERβ versus ERα, Fig. 1): selectivity for ERβ
- ER activity in cell culture [3]: ER agonist activity

Compound: Oc1cccc(-c2cn(-c3cccc(O)c3)nn2)c1 [3,3-TDP]
- effect of GPR30 antagonist G15 on neuroprotection ([1]; E2 10 nM): GPR30-dependent
- neuroprotection against OGD by BT-SERM analogs and derivatives [1]: neuroprotective

Compound: C[C@]12CC[C@@H]3c4ccc(O)cc4CC[C@H]3[C@@H]1CC[C@@H]2O [E2, 17β-estradiol]
- effect of GPR30 antagonist G15 on neuroprotection ([1]; E2 10 nM): blocked neuroprotection
- effect of ER antagonist ICI 182 780 on neuroprotection ([1]; ICI 1 μM 45 min prior to OGD, SERMs 100 nM, E2 10 nM): block E2 mediated neuroprotection
- greater cell death in the vehicle treated group than the E2 treated group ([1]; OGD 2 h, recovery 24 h): 30-40%
- neuroprotection against OGD by estrogens ([1]; estrogens 10 nM, E2-BSA 10 ng/mL, MTT and LDH): neuroprotective

Compound: Cc1c(C)c2c(c(C)c1O)CCC(C)(C(=O)O)O2 (centres unmarked) [Trolox]
- effect of G15 on neuroprotection by antioxidants / sulforaphane [1]: did not inhibit neuroprotection; also recorded: insensitive to antagonism by G15
- neuroprotection against OGD by antioxidants / sulforaphane ([1]; MTT and LDH): neuroprotective; also recorded: concentration dependent neuroprotection

Compound: Oc1ccc(Oc2c(-c3ccc(F)cc3)sc3cc(O)ccc23)cc1 [HP-BTF, 2-(4-fluorophenyl)-3-(4-hydroxyphenoxy)benzo[b]thiophen-6-ol]
- effect of GPR30 antagonist G15 on neuroprotection ([1]; E2 10 nM): GPR30-dependent
- neuroprotection against OGD by BT-SERM analogs and derivatives [1]: neuroprotective

Compound: Cc1ccc(C(=O)c2c(-c3ccc(O)cc3)sc3cc(O)ccc23)cc1 [Tol-BTC, (6-hydroxy-2-(4-hydroxyphenyl)benzo[b]thiophen-3-yl)(p-tolyl)methanone]
- neuroprotection against OGD by BT-SERM analogs and derivatives [1]: neuroprotective

Compound: O=C(c1ccc(OCCN2CCCCC2)cc1)c1c(-c2ccc(O)cc2)sc2cc(O)ccc12 [Ral, raloxifene]
- neuroprotection against OGD, initial screen of BT-SERMs ([1]; MTT and LDH): neuroprotective
- concentration giving equivalence to E2 (10 nM) in neuroprotection [1]: 68 nM
- concentration giving equivalence to E2 (10 nM) in neuroprotection ([1]; listed as raloxifene): 62 nM

Compound: COc1ccc(-c2sc3cc(O)ccc3c2Oc2ccc(OCCN3CCCCC3)cc2)cc1 [arzoxifene]
- neuroprotection against OGD, initial screen of BT-SERMs ([1]; MTT and LDH): inactive

Compound: Oc1ccc(-c2sc3cc(O)ccc3c2Oc2ccc(OCCN3CCCCC3)cc2)cc1 [DMA, [6-hydroxy-3-[4-[2-(1-piperidinyl)-ethoxy]phenoxy]-2-(4-hydroxyphenyl)]benzo[b]thiophene]
- neuroprotection against OGD, initial screen of BT-SERMs ([1]; MTT and LDH): neuroprotective
- concentration giving equivalence to E2 (10 nM) in neuroprotection [1]: 28 nM
- binding to ERβ [2]: high affinity
- binding to ERα [4]: high affinity

Compound: C[S+]([O-])CCCCN=C=S (centres unmarked) [sulforaphane]
- neuroprotection against OGD at lower concentrations ([1]; MTT and LDH): neuroprotection
- neuroprotection against OGD at lower concentrations ([1]; MTT and LDH, listed as Sulforaphane): neuroprotective
- effect of G15 on neuroprotection by antioxidants / sulforaphane [1]: did not inhibit neuroprotection; also recorded: insensitive to antagonism by G15

Compound: O=C(CCCCCC(=O)c1c(-c2ccc(O)cc2)sc2cc(O)ccc12)c1c(-c2ccc(O)cc2)sc2cc(O)ccc12 [bisBTChd, 1,7-bis(6-hydroxy-2-(4-hydroxyphenyl)benzo[b]thiophen-3-yl)heptane-1,7-dione]
- neuroprotection against OGD by BT-SERM analogs and derivatives [1]: neuroprotective

Compound: Oc1ccc(-c2cn(-c3ccc(O)cc3)nn2)cc1 [4,4-TDP]
- neuroprotection against OGD by BT-SERM analogs and derivatives [1]: no neuroprotective activity

Compound: N=C(NCCC[C@H](N)C(=O)O)N[N+](=O)[O-] [N^G-nitro-L-arginine]
- Ki [5]: 4 µM

Compound: COC(=O)[C@@H](N)CCCNC(N)=N[N+](=O)[O-] [L-NAME, L-nitro-arginine methyl ester]
- effect of L-NAME on neuroprotection ([1]; L-NAME 100 μM, alone or in combination with estrogen and SERMs): no significant effect

Compound: Cc1cc(C(C)(C)C)c(O)c(C(C)(C)C)c1 [BHT, butylated hydroxtoluene]
- neuroprotection against OGD at lower concentrations ([1]; MTT and LDH): neuroprotective
- effect of G15 on neuroprotection by antioxidants / sulforaphane [1]: insensitive to antagonism by G15
- neuroprotection against OGD by antioxidants / sulforaphane ([1]; MTT and LDH): neuroprotective
- effect in OGD neurons at higher concentration ([1]; higher concentration (10 μM), MTT and LDH): neurotoxicity; also recorded: neurotoxic

Compound: CC(C)c1c(-c2ccc(O)cc2)sc2cc(O)ccc12 [iPr-BTC, 2-(4-hydroxyphenyl)-3-isopropylbenzo[b]thiophen-6-ol]
- neuroprotection against OGD by BT-SERM analogs and derivatives [1]: neuroprotective
